These results are taken from patent US20190308956A1, “PIPERAZINE DERIVATIVES AS ANTIVIRAL AGENTS WITH INCREASED THERAPEUTIC ACTIVITY” (SERVICIO ANDALUZ DE SALUD, priority 2016, published 2019).

Usually CC50 stands for the concentration giving 50% cytotoxicity. For orientation: IC50 means the concentration at which inhibition is half-maximal. As usually defined, the inhibition is the relative decrease from the control value, in per cent.

Data set [1] deals with wild-type HAdV16. Nature of the data set: Virus yield reduction (burst assay, TCID50), HAdV16. The class given is cell-based. The conditions noted are these: 50 μM, A549 cells, 48 h, yield with DMSO divided by yield with compound. The procedure:
(§1) 1.8. Virus yield reduction. The effect of the active compounds on virus production was evaluated in a burst assay A549 cells were infected with wild-type HAdV5 or HAdV16 (MOI 100) in the presence or absence of 50 μM compounds. After 48 h, cells were harvested and subjected to three rounds of freeze/thaw. Serial dilutions of clarified lysates were titrated on A549 cells and TCID50 values were calculated using an endpoint dilution method.46

The subject of data set [2] is A549 cells. Nature of the data set: Cytotoxicity assay (alamarBlue cell viability). The class given is cell-based, Human. The conditions noted are these: A549 cells, 48 h; read-out: CC50. In short, it runs like this: (§2)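 Actively dividing A549 cells exposed to compounds for 48 h, then alamarBlue (1/10th in culture medium) added for a further 4 h. CC50 taken as concentration giving 50% cytotoxicity; selectivity index = CC50/IC50, with IC50 from HAdV infection inhibition.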
(In general: The colour change of resazurin is a common sign of viable cells or microbes.)

Data set [3] can be described thus: Cytotoxicity assay (alamarBlue cell viability). The conditions noted are these: human, A549 cells, 48 h. The class given is cell-based, Human. In short, it runs like this:
as §2

The subject of data set [4] is HAdV5-GFP. Nature of the data set: Plaque assay, HAdV5-GFP in 293β5 cells. It counts as cell-based. The conditions noted are these: for Selectivity Index (SI) HAdV5: ratio CC50 to IC50, HAdV5; for IC50: read-out: IC50 HAdV5; for inhibition at 10 µM: read-out: Percentage of plaque formation inhibition, HAdV5-GFP, 10 μM, 293β5 cell line. In short, it runs like this: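 293β5 cells infected with HAdV5-GFP at 0.06 vp/cell for 2 h at 37° C. Then overlaid with agar/EMEM containing compound (5 to 1 μM stated range; screen run at 10 μM). After 7 days at 37° C., GFP plaques imaged and counted relative to DMSO control.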

In data set [5] the test system is HAdV16-GFP. Nature of the data set: Plaque assay, HAdV16-GFP in 293β5 cells. The conditions noted are these: for Selectivity Index (SI) HAdV16: ratio CC50 to IC50, HAdV16. The class given is cell-based. The procedure: 1.5. Plaque assay. For low MOI infections, active compounds were further evaluated in a plaque assay. 293β5 cells were seeded in 6-well plates at 4×10^5 cells per well in duplicate for each condition. When cells reached 80-90% confluency, they were infected with HAdV5-GFP or HAdV16-GFP (0.06 vp/cell) and rocked for 2 h at 37° C. The inoculum was removed and the cells were washed once with PBS. The cells were then carefully overlaid with 4 ml/well of equal parts of 1.6% […] Difco Agar Noble (Becton, Dickinson & Co, Sparks, MD) and 2× EMEM (BioWhittaker) supplemented with 2x penicillin/streptomycin, 2× L-glutamine and 10% FBS. The mixture also contained compound in concentrations ranging from 5 to 1 μM. Following incubation for 7 days at 37° C., plates were scanned with a Typhoon 9410 imager (GE Healthcare Life Sciences), and plaques were quantified with ImageJ.43

The subject of data set [6] is HCMV (AD169). Nature of the data set: HCMV infectivity assay by quantitative PCR. It counts as cell-based, human cytomegalovirus. The conditions noted are these: Human betaherpesvirus 5, AD169, MRC5, MRC-5 cells, 72 h, qPCR, read-out: Inhibition of HCMV DNA replication. The procedure: 1.9. HCMV infectivity assay by quantitative PCR. […] After 72 h of incubation at 37° C., DNA was purified from the cell lysate with the QlAamp DNA Mini Kit (QIAGEN, Valencia, Calif.) following the manufacturer's instructions. TaqMan primers and probes for a region of the US28 gene were designed with the GenScript Real-time PCR (TaqMan) Primer Design software (GenScript). Oligonucleotides sequences were CMV-F: 5′-[…]-3′; CMV-R: 5′-[…]-3′; and CMV-Probe: 5′-[…]-3′. Real-time PCR mixtures consisted of 10 μl the purified DNA, CMV-F at a concentration of 100 nM, CMV-R at a concentration of 300 nM, and CMV-Probe at a concentration of 50 nM in a total volume of 12.5 μl and mixed with 12.5 μl of KAPA PROBE FAST qPCR Master Mix (KAPABiosystems, MA). The PCR cycling protocol was 95° C. for 10 min followed by 40 cycles of 95° C. for 30 sec and 58° C. for 60 sec. Human glyceraldehyde-3-phosphate dehydrogenase (GAPDH) was used as internal control. Oligonucleotides sequences for GAPDH and conditions were those previously reported by Rivera et al.44 For quantification, gene fragment from US28 and GAPDH were cloned into the pGEM-T Easy vector (Promega) and known concentrations of template were used to generate a standard curve in parallel for each experiment. All assays were performed in a C1000 Thermal Cycler apparatus (BioRad).
In general terms: Real-time PCR tracks product formation cycle by cycle.

Data set [7] concerns wild-type HAdV5. Nature of the data set: Virus yield reduction (burst assay, TCID50), HAdV5. The class given is cell-based. The conditions noted are these: 50 μM, A549 cells, 48 h, yield with DMSO divided by yield with compound. The procedure:
as §1

Data set [8] has as its system wild type HAdV5. Nature of the data set: HAdV5 DNA quantification by real-time PCR. It counts as cell-based. The conditions noted are these: A549, 24 h, A549 cells, 24 h post-infection, qPCR, read-out: Inhibition of HAdV5 DNA replication. The procedure: 1.6. DNA quantification by real-time PCR. For DNA quantification, A549 cells (150,000 cells/well in a 24 wells-plate) were infected with wild type HAdV5 or HAdV16 (100 vp/cell) and incubated for 2 h at 37° C. in complete DMEM. After the incubation, excess virus was removed and the medium was replaced with 500 μl of complete DMEM containing 50 μM of either compounds or the same volume of DMSO (positive control). All samples were done in triplicate. After 24 h of incubation at 37° C., DNA was purified from the cell lysate with the QlAamp DNA Mini Kit (QIAGEN, Valencia, Calif.) following the manufacturer's instructions. TaqMan primers and probes for a region of the HAdV5 hexon were designed with the GenScript Real-time PCR (TaqMan) Primer Design software (GenScript). Oligonucleotides sequences were AdF: 5′-[…]-3′; AdR: 5′-[…]-3′; and AdProbe: 5′-[…]-3′. […]
Human glyceraldehyde-3-phosphate dehydrogenase (GAPDH) gene was used as internal control. Oligonucleotides sequences for GAPDH and conditions were those previously reported by Rivera et al.44 For quantification, gene fragments from hexon and GAPDH were cloned into the pGEM-T Easy vector (Promega) and known concentrations of template were used to generate a standard curve in parallel for each experiment. […]

As to `O=C(c1cc2ccccc2o1)N1CCN(C(=O)Nc2ccccc2[N+](=O)[O-])C(c2ccccc2)C1` (centres unmarked) [Compound 64, 4-(Benzofuran-2-carbonyl)-1-[(2-nitrophenyl)aminocarbonyl]-2-phenylpiperazine], the “Virus yield reduction HAdV16” value in data set [1] was 46.5 ± 10.8 fold. Also, in data set [2], the CC50 came out at 132000 ± 6010 nM. Further, it took 132000 ± 6010 nM to reach half-maximal cytotoxicity in data set [3] (CC50 at 48 h). In data set [4], the “Selectivity Index (SI) HAdV5” value was 53.3, the IC50 was 2500 ± 30 nM and the inhibition at 10 µM was 96 to 100%. For the same compound, in data set [5], the midpoint of inhibition, the IC50, lay at 2300 ± 170 nM and the “Selectivity Index (SI) HAdV16” value is recorded as 57.3. The inhibition at 50 µM in data set [6] amounted to 97.9 ± 0.9%. In data set [7], the “Virus yield reduction HAdV5” value is given as 34.5 ± 12.6 fold.

`O=C(c1cc2ccccc2o1)N1CCN(C(=O)Nc2cc(C(F)(F)F)ccc2Cl)C(c2ccccc2)C1` (centres unmarked) [Compound 65, 4-(Benzofuran-2-carbonyl)-1-[(2-chloro-5-trifluoromethylphenyl)aminocarbonyl]-2 phenylpiperazine]: the “Virus yield reduction HAdV16” value in data set [1] is recorded as 33.2 ± 7.3 fold. In addition, in data set [3], the CC50 at 48 h came out at 131000 ± 17800 nM. In addition, in data set [4], the “Selectivity Index (SI) HAdV5” value is 116.2, the IC50 is 1100 ± 50 nM and the inhibition at 10 µM lay within 96 to 100%. In data set [5], inhibition was half-maximal at 1800 ± 200 nM (IC50) and the “Selectivity Index (SI) HAdV16” value worked out at 72.7. Further, in data set [6], the inhibition at 50 µM was found to be 98.2 ± 0.38%. Also, the “Virus yield reduction HAdV5” value in data set [7] is recorded as 60.3 ± 15.2 fold. Further, in data set [8], the inhibition at 50 µM was 33.1 ± 0.5%.
